In ChEMBL document CHEMBL1201862, “PubChem BioAssay data set” (2004):
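Tested at 5 concentrations; 48 h exposure; 96-well plates; endpoints linearly interpolated, else capped at highest concentration. GI50 = concentration required for 50% inhibition of growth.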 Calls of active or inactive are those of the source. No stated cut-off is given here; in the data, active = GI50 up to about 1.1 µM and inactive = higher.

Experiments:
Assay in all cases: NCI-60 cell line screen, 48 h
NCI-H226 = test system: NCI-H226
Hs-578T = test system: Hs-578T
HCC 2998 = test system: HCC 2998
CAKI-1 = test system: CAKI-1
IGROV-1 = test system: IGROV-1
MCF7 = test system: MCF7
HOP-92 = test system: HOP-92
MDA-MB-435 = test system: MDA-MB-435
K562 = test system: K562
BT-549 = test system: BT-549
HCT-116 = test system: HCT-116
MDA-N = test system: MDA-N
SF-295 = test system: SF-295
SNB-19 = test system: SNB-19
OVCAR-5 = test system: OVCAR-5
LOX IMVI = test system: LOX IMVI
CCRF-CEM = test system: CCRF-CEM
Malme-3M = test system: Malme-3M
SR = test system: SR

Structure (SMILES) | GI50 (NCI-H226) | GI50 (Hs-578T) | GI50 (HCC 2998) | GI50 (CAKI-1) | GI50 (IGROV-1) | GI50 (MCF7) | GI50 (HOP-92) | GI50 (MDA-MB-435) | GI50 (K562) | GI50 (BT-549) | GI50 (HCT-116) | GI50 (MDA-N) | GI50 (SF-295) | GI50 (SNB-19) | GI50 (OVCAR-5) | GI50 (LOX IMVI) | GI50 (CCRF-CEM) | GI50 (Malme-3M) | GI50 (SR)
CCN(CC)Cc1cc(Nc2c3ccccc3nc3c2[nH]c2ccccc23)cc(CN(CC)CC)c1O | 2.45 µM (inactive) | 2.15 µM (inactive) | 0.836 µM (active) | 1.77 µM (inactive) | 0.861 µM (active) | 1.34 µM (inactive) | 1.14 µM (inactive) | 0.701 µM (active) | 0.631 µM (active) | 1.41 µM (inactive) | 0.33 µM (active) | 0.815 µM (active) | 1.28 µM (inactive) | 1.21 µM (inactive) | 2.01 µM (inactive) |  |  |  | 
C#CC[C@@H]1C(=O)N(Cc2ccc(OC)cc2)[C@@H](C(C)C)C(=O)N1Cc1ccc(OC)cc1 | 35.2 µM (inactive) | > 100 µM (inactive) | 47.1 µM (inactive) | > 100 µM (inactive) | > 100 µM (inactive) | 19.8 µM (inactive) | 84.3 µM (inactive) | 36.1 µM (inactive) | 32.4 µM (inactive) | 29.4 µM (inactive) | 28.1 µM (inactive) | 22.9 µM (inactive) | 54.2 µM (inactive) | 64.4 µM (inactive) | 67.5 µM (inactive) | 36.4 µM (inactive) | 0.458 µM (active) | 55.2 µM (inactive) | 
Cc1cccc(NC(=S)Nc2ccccc2Cl)n1 | 39 µM (inactive) | 38.4 µM (inactive) |  | 27.4 µM (inactive) | 30.1 µM (inactive) | > 100 µM (inactive) |  | > 100 µM (inactive) | > 100 µM (inactive) | 59.7 µM (inactive) | > 100 µM (inactive) | > 100 µM (inactive) | 32 µM (inactive) | 25.1 µM (inactive) | 81.7 µM (inactive) | > 100 µM (inactive) | > 100 µM (inactive) | 38 µM (inactive) | > 100 µM (inactive)
S=C1c2ccc(Cl)cc2-n2cnnc2C2CSCN12 (configuration not stated) | > 100 µM (inactive) | > 100 µM (inactive) | > 100 µM (inactive) | > 100 µM (inactive) | > 100 µM (inactive) | > 100 µM (inactive) |  | 95.1 µM (inactive) | 13.9 µM (inactive) | > 100 µM (inactive) | 62.5 µM (inactive) | 63.1 µM (inactive) | > 100 µM (inactive) | > 100 µM (inactive) | > 100 µM (inactive) | > 100 µM (inactive) | > 100 µM (inactive) | > 100 µM (inactive) | 52.4 µM (inactive)
Cc1nc2ccc(F)cc2c2c1CCN2c1ccc(Cl)cc1 | 9.38 µM (inactive) | 27.6 µM (inactive) | 13.7 µM (inactive) | 13.9 µM (inactive) | 7.73 µM (inactive) | 11.6 µM (inactive) | 2.69 µM (inactive) | 6.64 µM (inactive) | 2.26 µM (inactive) | 19.5 µM (inactive) | 4.52 µM (inactive) | 4.25 µM (inactive) | 4.33 µM (inactive) | 36.6 µM (inactive) | 33.9 µM (inactive) | 12.5 µM (inactive) | 5.82 µM (inactive) | 10.7 µM (inactive) | 
CN(C)c1ccc(/N=N/c2ccccn2)cc1 | 32 µM (inactive) | > 100 µM (inactive) | 14.1 µM (inactive) | 32.2 µM (inactive) | 5.93 µM (inactive) | 3.18 µM (inactive) | 69.8 µM (inactive) | 23.4 µM (inactive) | 4.61 µM (inactive) | 81.3 µM (inactive) | 6.67 µM (inactive) | 33.7 µM (inactive) | 37 µM (inactive) | 58.6 µM (inactive) | > 100 µM (inactive) | 57.5 µM (inactive) | 4.17 µM (inactive) | 22.6 µM (inactive) | 
O=c1c2cccnc2cc(-c2ccccc2)n1CCO | > 100 µM (inactive) | > 100 µM (inactive) | > 100 µM (inactive) |  | > 100 µM (inactive) | > 100 µM (inactive) |  | > 100 µM (inactive) | > 100 µM (inactive) | > 100 µM (inactive) | > 100 µM (inactive) | > 100 µM (inactive) | > 100 µM (inactive) | > 100 µM (inactive) | > 100 µM (inactive) | > 100 µM (inactive) | > 100 µM (inactive) | > 100 µM (inactive) | > 100 µM (inactive)
CS(=O)(=O)O.[Ag] | 25.1 µM (inactive) | 37.7 µM (inactive) | 14.2 µM (inactive) | 17.8 µM (inactive) | 1.6 µM (inactive) | 4.03 µM (inactive) | 2.14 µM (inactive) | 2.91 µM (inactive) | 2.23 µM (inactive) | 20.8 µM (inactive) | 5.04 µM (inactive) | 7.1 µM (inactive) | 34.2 µM (inactive) | 29.3 µM (inactive) | 19.3 µM (inactive) | 3.09 µM (inactive) | 2.46 µM (inactive) | 1.92 µM (inactive) | 
COC(=O)c1c(C)cccc1/C=C1/Cc2c(C)cccc2C1=O | > 100 µM (inactive) | 32.6 µM (inactive) | > 100 µM (inactive) | > 100 µM (inactive) | > 100 µM (inactive) | 8.97 µM (inactive) | 58.1 µM (inactive) | > 100 µM (inactive) |  | 28.2 µM (inactive) | > 100 µM (inactive) | > 100 µM (inactive) | > 100 µM (inactive) |  | > 100 µM (inactive) | 20.5 µM (inactive) |  | > 100 µM (inactive) | 
COc1ccc(-c2cc(-c3ccco3)c(C#N)c(=S)n2C2OC(CO)C(O)C(O)C2O)cc1 (configuration not stated) | > 100 µM (inactive) | > 100 µM (inactive) | 25 µM (inactive) | > 100 µM (inactive) | 92.3 µM (inactive) | 58.6 µM (inactive) |  | > 100 µM (inactive) | > 100 µM (inactive) | > 100 µM (inactive) | > 100 µM (inactive) | > 100 µM (inactive) | 80.4 µM (inactive) | > 100 µM (inactive) | > 100 µM (inactive) | 50.4 µM (inactive) | > 100 µM (inactive) | > 100 µM (inactive) | 
Cc1c(C#N)c(N)n(C2OCC(O)C(O)C2O)c(=S)c1C#N (configuration not stated) | > 100 µM (inactive) | 24.5 µM (inactive) | > 100 µM (inactive) | > 100 µM (inactive) | > 100 µM (inactive) | > 100 µM (inactive) |  | > 100 µM (inactive) | > 100 µM (inactive) | > 100 µM (inactive) |  | > 100 µM (inactive) | > 100 µM (inactive) | > 100 µM (inactive) | > 100 µM (inactive) | > 100 µM (inactive) | > 100 µM (inactive) | > 100 µM (inactive) | > 100 µM (inactive)
CN(C)CCCN1C(=S)N(CCCN(C)C)c2c3ccccc3nc3c([N+](=O)[O-])ccc1c23 | 8.02 µM (inactive) | 6.27 µM (inactive) | 4.21 µM (inactive) | 5.96 µM (inactive) | 3.06 µM (inactive) | 5.47 µM (inactive) | 5.33 µM (inactive) | 5.47 µM (inactive) | 4.3 µM (inactive) | 14.7 µM (inactive) | 3.71 µM (inactive) | 7.46 µM (inactive) | 8.38 µM (inactive) | 8.67 µM (inactive) | 13.8 µM (inactive) | 4.42 µM (inactive) | 18.8 µM (inactive) | 1.75 µM (inactive) | 
CN(C)Cc1cc(/N=N/c2ccccc2)cc(CN(C)C)c1O | > 100 µM (inactive) | > 100 µM (inactive) | 79.1 µM (inactive) | > 100 µM (inactive) | 85.7 µM (inactive) |  | 63.1 µM (inactive) | > 100 µM (inactive) | 97.5 µM (inactive) | > 100 µM (inactive) | 53.6 µM (inactive) | > 100 µM (inactive) | > 100 µM (inactive) | > 100 µM (inactive) | > 100 µM (inactive) | 47.2 µM (inactive) | 32.3 µM (inactive) | > 100 µM (inactive) | > 100 µM (inactive)
COc1ccc(/C(CCl)=C(\Nc2ccccc2)c2ccc(OC)c(OC)c2)cc1OC | 68.9 µM (inactive) | > 100 µM (inactive) | > 100 µM (inactive) | > 100 µM (inactive) |  | > 100 µM (inactive) | 55.1 µM (inactive) | > 100 µM (inactive) | 58.3 µM (inactive) | > 100 µM (inactive) | 27.6 µM (inactive) | > 100 µM (inactive) | 78 µM (inactive) | > 100 µM (inactive) | > 100 µM (inactive) | > 100 µM (inactive) | 97.9 µM (inactive) | > 100 µM (inactive) | 
O=C1/C(=C\c2ccc(O)cc2)CCC/C1=C/c1ccc(Cl)c(Cl)c1 | 3.96 µM (inactive) | 5.65 µM (inactive) | 2.31 µM (inactive) | 4.82 µM (inactive) | 0.331 µM (active) | 2.69 µM (inactive) | 15.6 µM (inactive) | 3.15 µM (inactive) | 2.67 µM (inactive) | 2.77 µM (inactive) | 1.89 µM (inactive) | 2.48 µM (inactive) | 2.65 µM (inactive) | 5.51 µM (inactive) | 18.8 µM (inactive) | 1.47 µM (inactive) | 0.374 µM (active) | 5.3 µM (inactive) | 
C/C1=C\[C@H](C)C[C@H](C)OC(=O)[C@H](C)NC(=O)[C@@H](Cc2ccc(O)c(Br)c2)N(C)C(=O)[C@H](C)NC(=O)[C@@H](C)C1 | 0.0505 µM (active) | 0.094 µM (active) | 0.00408 µM (active) | 0.0149 µM (active) | 0.0152 µM (active) | 0.0479 µM (active) | 0.0533 µM (active) | 0.0735 µM (active) | 0.0836 µM (active) | 0.132 µM (active) | 0.00382 µM (active) | 0.0982 µM (active) | 0.0578 µM (active) | 0.184 µM (active) | 10.7 µM (inactive) | 0.00533 µM (active) | 0.0124 µM (active) | 0.0708 µM (active) | 
